We go through four molecules from patent US20230416245A1, “ADENOSINE ANALOGS FOR THE TREATMENT OF DISEASE” (BIOINTERVENE, INC., priority 2020, published 2023).

For orientation: pEC50 means the negative decadic logarithm of the EC50, by convention in mol/L. Read a high pEC50 as a small EC50.

Each structure is given as a SMILES string. pEC50: −log10 of the molar value.

The target in the experiment is human adenosine A3 receptor (Homo sapiens (Human), UniProt P0DMS8). Put plainly: Intracellular cAMP levels (inhibition of forskolin-stimulated cAMP production). It counts as cell-based. As to conditions: for pEC50: CHO cells expressing human adenosine A3 receptors, forskolin 10 μM; for CAMP Efficacy (%): maximal response as percentage of the response produced by 100 nM IB-MECA. The source says: Example 31: Intracellular cAMP Levels
Chain of human adenosine A3 receptor (P0DMS8 whole entry): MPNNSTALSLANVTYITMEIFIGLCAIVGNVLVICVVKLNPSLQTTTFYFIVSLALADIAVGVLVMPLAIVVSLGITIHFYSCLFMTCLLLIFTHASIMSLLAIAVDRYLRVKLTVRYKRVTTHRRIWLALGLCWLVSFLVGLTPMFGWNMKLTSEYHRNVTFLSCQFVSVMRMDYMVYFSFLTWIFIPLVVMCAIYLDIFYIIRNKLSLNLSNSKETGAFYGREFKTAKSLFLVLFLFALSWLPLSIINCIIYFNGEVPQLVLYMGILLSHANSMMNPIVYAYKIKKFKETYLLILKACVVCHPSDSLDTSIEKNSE
The method followed is that published in Yates L, Clark J H, Martin T J, James S, Broadley K J, Kidd E J. Radioligand binding and functional responses of ligands for human recombinant adenosine A3 receptors. Auton Autacoid Pharmacol. 2006 April; 26(2):191-200.
Materials and Cell Culture: Adenosine deaminase was obtained from Roche (Lewes, UK). Forskolin was obtained from Sigma-Aldrich (Poole, UK). The sources of other materials are provided above in Example 1. CHO-K1 cells stably transfected with the human adenosine A3 receptor were grown in Dulbecco's modified Eagles medium with nutrient mixture F12 containing NaHCO3 and Glutamax. Media was supplemented with 10% fetal calf serum, geneticin (G418; 0.67 mg/mL), hygromycin (500 μg/mL) and adenosine deaminase (1 U/mL). Cells were maintained at 37° C. with 5% CO2 in air.
cAMP Measurements: Intracellular cAMP production was measured directly using a non-acetylation cAMP enzyme immunoassay (Amersham Biosciences, Little Chalfont, UK). Cultured CHO cells expressing human adenosine A3 receptors were allowed to plate overnight in 96-well plates in culture medium containing adenosine deaminase. Twenty-four hours later, they were incubated with adenosine analogues or compounds of the invention (0.1 nM-1 μM) for 5 min at 37° C., followed by incubation with forskolin (10 μM) for 10 min. The cells were then lysed with 200 μL of lysis reagent 1 provided with the kit for 10 min to release intracellular cAMP. Aliquots of the supernatants were then transferred to a 96-well microtitre plate coated with donkey anti-rabbit IgG; 100-μL cAMP standards (12.5-3200 fmol/well) were also added to the microtitre plate; 100 μL of rabbit anti-cAMP antibody was added to all wells and incubated at 2-5° C. for 2 h. The antiserum was made up in lysis reagent 2, which sequesters the key component in lysis reagent 1 and ensures that cAMP is free for subsequent analysis. Then 50 μL of cAMP peroxidase conjugate was added to all wells and left to incubate for 60 min at 2-5° C. to allow competition for the antibody between the un-labelled and horse radish peroxidase (HRP)-labelled cAMP. Wells were then washed with buffer and 150 μL of enzyme substrate containing 3,3′,5,5′-tetramethylbenzidine/hydrogen peroxide in 20% (v/v) dimethylformamide was added to each well and left to incubate for 60 min on a Titramax 100 microtitre plate shaker (Heidolph Instruments, Schwabach, Germany) at room temperature for color development. The reaction was stopped by the addition of 100 μL of 1 M sulfuric acid and the optical density (OD) read at 450 nm on a spectrophotometric MRX microplate reader (Dynex Technologies, Chantilly, VA, USA).
Analyses: Each sample/standard was analyzed in duplicate and the resulting OD values averaged. The percent bound (B/Bo) for each standard and sample was calculated using the following relationship: […]
where B is the specific OD for standard/sample and Bo is the specific OD for the zero standard. A standard curve was generated by plotting % B/Bo as a function of the log fmol cAMP standard per well. The fmol per well value for cAMP in each sample was then read from the graph. The results are expressed as a percent of control agonist response: (measured response/control response)*100 in the presence of the compounds of the invention. Concentration-response curves for inhibition of cAMP production were constructed for all compounds of the invention and reference compounds. The EC50 values (concentration producing a half-maximal response) were determined by non-linear regression analysis of the concentration-response curves generated with mean replicate values using Hill equation curve fitting, according to the equation:
where Y=response, A=left asymptote of the curve, D=right asymptote of the curve, C=compound concentration, and C50=EC50, and nH=slope factor. […]
(Cyclic AMP is a second messenger, typically raised through Gs and lowered through Gi signalling.)

With `O[C@@H]1[C@H](O)[C@@H]2C[C@@H]2[C@H]1n1cnc2c(NCC(F)F)cc(Cl)nc21` [Compound 40, (1R,2R,3S,4R,5S)-4-(5-chloro-7-((2,2-difluoroethyl)amino)-3H-imidazo[4,5-b]pyridin-3-yl)bicyclo[3.1.0]hexane-2,3-diol], the pEC50 was 8.07 and the “CAMP Efficacy (%)” value came out at 77.6%.
Turning to `Cc1c(Cl)nc2c(ncn2[C@H]2[C@H](O)[C@H](O)[C@@H]3C[C@@H]32)c1NCC(F)F` [Compound 60, (1R,2R,3S,4R,5S)-4-(5-chloro-7-((2,2-difluoroethyl)amino)-6-methyl-3H-imidazo[4,5-b]pyridin-3-yl)bicyclo[3.1.0]hexane-2,3-diol], the pEC50 is below 5.00 and the “CAMP Efficacy (%)” value came out at 1%.
The matching figures for `CCNc1cc(C#CC2CC2)nc2c1ncn2[C@H]1[C@H](O)[C@H](O)[C@@H]2C[C@@H]21` [Compound 46, (1R,2R,3S,4R,5S)-4-(5-(cyclopropylethynyl)-7-(ethylamino)-3H-imidazo[4,5-b]pyridin-3-yl)bicyclo[3.1.0]hexane-2,3-diol]: below 5.00 and 1%.
The matching figures for `O[C@@H]1[C@H](O)[C@@H]2C[C@@H]2[C@H]1n1cnc2c(NCC(F)F)nc(Cl)nc21` [Compound 35, (1R,2R,3S,4R,5S)-4-(2-chloro-6-((2,2-difluoroethyl)amino)-9H-purin-9-yl)bicyclo[3.1.0]hexane-2,3-diol]: 8.88 and 80.97%.
